Experimental data as given in US7838271B2, “Microbiological method for producing amides” (priority 2001, dated 2010).
Read-outs that look alike come from different tables or passages of the source.

Columns and labels:
[1] = tested on: purified Rhodococcus sp. FZ4 nitrile hydratase; format: biochemical
Method: (§1) A solution comprising nitrile hydratase solution (0.695 μmol/min; 0.025 ml), potassium phosphate buffer (0.1 M; pH 7.0; 0.475 ml), distilled water (0.150 ml) and different potential inhibitors (0.100 ml) was incubated at 20° C. for 5 min. This was followed by the addition of 3-cyanopyridine (1.0 M; 0.250 ml). The concentration of the inhibitors in the reaction mixture was 1.0 mM. The reaction mixture was incubated at 20° C. for 10 min. The reaction was stopped by adding MeOH. The amount of nicotinamide produced was determined by means of HPLC according to Example 1.

[2] = tested on: Rhodococcus sp. FZ4 nitrile hydratase; experiment: Substrate specificity of nitrile hydratase activity, resting cells; format: cell-based
Method: (§2) Nitrile hydratase activity was determined by incubating a reaction mixture comprising 3-cyanopyridine (1.0 M; 1.0 ml), potassium phosphate buffer (0.1 M, pH 7.0; 0.5 ml) and cell suspension (0.5 ml) with stirring at 20° C. for 5 min. The reaction was stopped by adding HCI (5 M; 0.1 ml). After filtration (0.2 μm filter) of the reaction mixture, the amount of nicotinamide produced was determined by means of HPLC (Waters Spherisorb 5 μ ODS2 (4.6×150 mm); KH2P04/H3P04 (10 mM; pH 2.8)/acetonitrile=9:1 (v/v); 1 ml/min; 230 nm). The total activity is expressed as μmol of nicotinamide produced/ (min×ml) and the specific activity is expressed as μmol of nicotinamide produced/(min×ml×OD610 nm).
Rhodococcus sp. FZ4 nitrile hydratase activity with respect to different substrates was determined according to Example 1, except that the appropriate substrate was used instead of 3-cyanopyridine and that the HPLC conditions were modified according to the substrate used.

[3] = tested on: Rhodococcus rhodochrous J1 nitrile hydratase; experiment: Substrate specificity of nitrile hydratase activity (comparison strain); format: cell-based
[4] = tested on: purified Rhodococcus sp. FZ4 nitrile hydratase; experiment: Substrate specificity of purified nitrile hydratase; format: biochemical
Method: A reaction mixture comprising nitrile hydratase solution (0.695 μmol/min; 0.025 ml), different substrates (0.500 ml) and potassium phosphate buffer (0.1 M; pH 7.0; 0.475 ml) was incubated at 20° C. for 5 to 10 min. The concentrations of the substrates used were in the range from 0.015 to 0.250 M. The reaction was stopped by adding MeOH. The amount of amide produced was determined by means of HPLC.

[5] = tested on: Rhodococcus sp. FZ4 nitrile hydratase; format: cell-based
Method: as §2
(§3) The preculture medium of Table 2 was inoculated with strain Rhodococcus sp. FZ4 (DSM 13597), followed by incubation with shaking at 28° C. for 1 to 2 days. The preculture was transferred into the culture medium of Table 5, which contained different inducers, and cultured with shaking at 28° C. for 3 days. Nitrile hydratase activity was determined according to Example 1. Rhodococcus sp.

[6] = tested on: Rhodococcus sp. FZ4; format: cell-based
Method: as §3

[7] = tested on: purified Rhodococcus sp. FZ4 nitrile hydratase; experiment: Influence of metal ions on the activity of purified nitrile hydratase; format: biochemical; conditions: metal ions 1.0 mM; no addition = 100
Method: as §1
The influence of metal ions on the activity of purified nitrile hydratase was carried out according to Example 24, but with the addition of metal ions instead of potential inhibitors. […]

[8] = culture medium with inducer 0.2% (w/v), 28° C., 3 days, substrate 3-cyanopyridine
[9] = culture medium with inducer 0.2% (w/v), 28° C., 3 days

| Compound | Relative activity [1] | Specific activity [5, 8] | Total activity [5, 8] | Growth [6, 9] | other results |
| --- | --- | --- | --- | --- | --- |
| O[C@H](CS)[C@H](O)CS (racemic) [Dithiothreitol] | 103% | – | – | – | – |
| c1cnc2c(c1)ccc1cccnc12 [1,10-Phenanthroline] | 106% | – | – | – | – |
| c1ccc(-c2ccccn2)nc1 [2,2′-Bipyridyl] | 97.8% | – | – | – | – |
| N#Cc1ccccn1 [2-Cyanopyridine] | – | – | – | – | Relative activity [2]: 39.3%; Relative activity [3]: 45%; Relative activity [4]: 36.7% |
| OCCS [2-Mercaptoethanol] | 76.3% | – | – | – | – |
| CC=CCC#N [3-Pentenenitrile] | – | 13.4 μmol/(min × ml × OD610 nm) | 62 µmol/min/mL | 4.62 OD610 nm | – |
| N#Cc1ccncc1 [4-Cyanopyridine] | – | – | – | – | Relative activity [2]: 98.4%; Relative activity [3]: 70%; Relative activity [4]: 92.8% |
| O=C(O)c1cc(SSc2ccc([N+](=O)[O-])c(C(=O)O)c2)ccc1[N+](=O)[O-] [5,5′-Dithiobis(2-nitrobenzoic acid)] | 93.4% | – | – | – | – |
| Oc1cccc2cccnc12 [8-Hydroxyquinoline] | 97.8% | – | – | – | – |
| C=CC(N)=O [Acrylamide] | – | – | – | – | Specific activity [5]: 11.7 μmol/(min × ml × OD610 nm); Total activity [5]: 60.5 µmol/min/mL; Growth [6]: 5.17 OD610 nm |
| C=CC#N [Acrylonitrile] | – | 1.81 μmol/(min × ml × OD610 nm) | – | 3.27 OD610 nm | Relative activity [2]: 498%; Relative activity [3]: 478%; Relative activity [4]: 774% |
| O=[N+]([O-])[O-].[Ag+] [AgNO3] | – | – | – | – | Relative activity [7]: 0% |
| NC(=O)c1ccccc1 [Benzamide] | – | 2.12 μmol/(min × ml × OD610 nm) | 8.24 µmol/min/mL | 3.88 OD610 nm | – |
| N#Cc1ccccc1 [Benzonitrile] | – | – | – | – | Specific activity [5]: 7.17 μmol/(min × ml × OD610 nm); Total activity [5]: 40.3 µmol/min/mL; Relative activity [2]: 41.7%; Growth [6]: 5.62 OD610 nm; Relative activity [3]: 27%; Relative activity [4]: 75.6% |
| CCCC(N)=O [Butyramide] | – | 73.2 μmol/(min × ml × OD610 nm) | 344 µmol/min/mL | 4.7 OD610 nm | – |
| CCCC#N [Butyronitrile] | – | 58.4 μmol/(min × ml × OD610 nm) | 307 µmol/min/mL | 5.26 OD610 nm | Relative activity [2]: 466%; Relative activity [3]: 26%; Relative activity [4]: 578% |
| [Ca+2].[Cl-].[Cl-] [CaCl2] | – | – | – | – | Relative activity [7]: 113% |
| CCCCCC#N [Caprononitrile] | – | 23.0 μmol/(min × ml × OD610 nm) | 104 µmol/min/mL | 4.54 OD610 nm | – |
| C/C=C/C(N)=O [Crotonamide] | – | 59.9 μmol/(min × ml × OD610 nm) | 558 µmol/min/mL | 9.32 OD610 nm | – |
| CC=CC#N [Crotononitrile] | – | 49.4 μmol/(min × ml × OD610 nm) | 407 µmol/min/mL | 8.24 OD610 nm | Relative activity [2]: 92.1%; Relative activity [3]: 78%; Relative activity [4]: 114% |
| O=S(=O)([O-])[O-].[Cu+2] [CuS04] | – | – | – | – | Relative activity [7]: 177% |
| N#CCC(N)=O [Cyanoacetamide] | – | 6.50 μmol/(min × ml × OD610 nm) | 30.9 µmol/min/mL | 4.75 OD610 nm | – |
| NCCS [Cysteamine] | 99.1% | – | – | – | – |
| N[C@@H]1CONC1=O [D-Cycloserine] | 86.3% | – | – | – | – |
| O=C(O)CN(CCN(CC(=O)O)CC(=O)O)CC(=O)O [EDTA, Ethylenediaminetetraacetic acid] | 100% | – | – | – | – |

| Compound | Relative activity [1] | Specific activity [5, 8] | Total activity [5, 8] | Growth [6, 9] | other results |
| --- | --- | --- | --- | --- | --- |
| [Cl][Fe]([Cl])[Cl] [FeCl3] | – | – | – | – | Relative activity [7]: 105% |
| NO [Hydroxylamine] | 1.34% | – | – | – | – |
| O=C(O)CI [Iodoacetate] | 96.7% | – | – | – | – |
| CC(C)C(N)=O [Isobutyramide] | – | 109 μmol/(min × ml × OD610 nm) | 387 µmol/min/mL | 3.55 OD610 nm | – |
| CC(C)C#N [Isobutyronitrile] | – | 52.1 μmol/(min × ml × OD610 nm) | 273 µmol/min/mL | 5.24 OD610 nm | – |
| CC(C)CCC#N [Isocaprononitrile] | – | 28.5 μmol/(min × ml × OD610 nm) | 134 µmol/min/mL | 4.72 OD610 nm | – |
| NC(=O)c1ccncc1 [Isonicotinamide] | – | 2.17 μmol/(min × ml × OD610 nm) | 10.9 µmol/min/mL | 5.03 OD610 nm | – |
| CC(C)CC#N [Isovaleronitrile] | – | 23.2 μmol/(min × ml × OD610 nm) | 74.7 µmol/min/mL | 3.22 OD610 nm | – |
| C=C(C)C(N)=O [Methacrylamide] | – | 125 μmol/(min × ml × OD610 nm) | 569 µmol/min/mL | 4.55 OD610 nm | Relative activity [4]: 1.39% |
| C=C(C)C#N [Methacrylonitrile] | – | 71.5 μmol/(min × ml × OD610 nm) | 330 µmol/min/mL | 4.61 OD610 nm | Relative activity [2]: 3.64%; Relative activity [3]: 87% |
| CCN1C(=O)C=CC1=O [N-Ethylmaleinimide] | 95.3% | – | – | – | – |
| NNc1ccccc1 [Phenylhydrazine] | 84.6% | – | – | – | – |
| O=S(=O)(F)Cc1ccccc1 [Phenylmethanesulfonyl fluoride] | 110% | – | – | – | – |
| CCC(N)=O [Propionamide] | – | 28.7 μmol/(min × ml × OD610 nm) | 149 µmol/min/mL | 5.17 OD610 nm | – |
| CCC#N [Propionitrile] | – | 20.3 μmol/(min × ml × OD610 nm) | 95.8 µmol/min/mL | 4.72 OD610 nm | Relative activity [2]: 412%; Relative activity [3]: 435%; Relative activity [4]: 693% |
| O=S(=O)(O)c1cc(O)c(O)c(S(=O)(=O)O)c1 [Tiron] | 114% | – | – | – | – |
| NC(N)=O [Urea] | 106% | 0.918 μmol/(min × ml × OD610 nm) | 5.66 µmol/min/mL | 6.16 OD610 nm | – |
| CCCCC(N)=O [Valeramide] | – | 57.5 μmol/(min × ml × OD610 nm) | 322 µmol/min/mL | 5.61 OD610 nm | – |
| CCCCC#N [Valeronitrile] | – | 32.4 μmol/(min × ml × OD610 nm) | 120 µmol/min/mL | 3.70 OD610 nm | – |
| N#Cc1cccc(Cl)c1 [m-Chlorobenzonitrile] | – | – | – | – | Relative activity [2]: 39.3%; Relative activity [3]: 43%; Relative activity [4]: 66.5% |
| N#Cc1ccccc1Cl [o-Chlorobenzonitrile] | – | – | – | – | Relative activity [2]: 0%; Relative activity [3]: 2.8%; Relative activity [4]: 0% |
| N#Cc1ccc(Cl)cc1 [p-Chlorobenzonitrile] | – | – | – | – | Relative activity [2]: 8.25%; Relative activity [3]: 13%; Relative activity [4]: 8.31% |
| O=C(O)c1cc[c]([Hg][Cl])cc1 [p-Chloromercuribenzoic acid] | 187% | – | – | – | – |
| O=C1CCCCCN1 [ε-Caprolactam] | – | 9.08 μmol/(min × ml × OD610 nm) | 40.3 µmol/min/mL | 4.44 OD610 nm | – |
